Assay [1] deals with stromelysin (Homo sapiens, UniProt P08254). Description: Assay of stromelysin inhibition activity (fluorogenic coumarin peptide substrate). The assay is classed as biochemical. The conditions noted are these: trypsin-activated stromelysin 2 nM, H-150 buffer pH 7.4, room temperature; read-out: Ki(app). In short, it runs like this:
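Human stromelysin trypsin-activated, then used at 2 nM in HEPES/NaCl/CaCl2 buffer pH 7.4 at room temperature with coumarin peptide substrate. Initial hydrolysis rate followed by fluorescence (ex 328/em 393 nm); inhibitor added stepwise to 30-70% inhibition, Ki derived assuming simple competitive inhibition with substrate far below Km.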

In assay [2] the test system is bovine cartilage explants. Description: Bovine cartilage explant assay (35S-GAG release, rhIL-1α stimulated). It is filed as cell-based. Conditions: rhIL-1α 5 ng/mL, 3-4 days culture. The text has this:
A tissue culture assay was used to measure the ability of the compounds of the present invention to slow the degradation of the extracellular matrix by metalloproteinases. This assay measured the amount of ^35 S-glycosaminoglycan (^35 S-GAG) released from labeled bovine cartilage explants.
Knee joints from a 1 to 3 week old calf were obtained immediately after sacrifice from the Abattoir and then transported on ice. The intact joints were washed well with tap water and soaked in 50% (v/v) Povidine iodine solution, obtained from Burre National, Inc., Baltimore, Md. All subsequent steps were performed in a laminar flow tissue culture hood using standard sterile technique. The joint was immobilized in a shank holder and the joint capsule was cut open to expose the articular cartilage. Cartilage explant plugs, approximately 15 mg wet weight, were removed from the flat articulating surfaces in the lower-most region of the knee joint using a sterile steel cork-borer and collected in a 250 mL roller bottle containing about 100 mL fresh Delbecco's minimum essential medium (DMEM), obtained from Gibco BRC, Life Technologies, Gaithersburg, Md., containing 4.5 g/l (D)-glucose and (L)-glutamine, without sodium pyruvate. The fresh media also contained enough Hepes buffer and sodium bicarbonate such that the pH was about 7.4. The media was then further supplemented just before use with 100 units Penicillin, 100 μg Streptomycin, and 50 μg (L)-ascorbic acid per mL of medium.
Once collected, the explant plugs were washed four times with 50 mL fresh DMEM. The plugs were then placed in the incubator for a minimum of 1 hour to equilibrate, before proceeding to make disks from the articulating surface of each plug. A 1 mm thick disk was sliced from individual plugs from the end that was the articulating surface of the joint. The plug was held steady in the sterile template (4 mm diameter×1.5 mm deep) using sterile forceps. A scalpel blade was used to carefully slice off the disk. Only the superficial articulating surface responded well in culture.
Individual disks obtained were transferred to a tissue culture flask containing about 100 mL fresh media. The flask containing the disks was placed in an incubator at 37° C. (with 5% CO2, 95% air) and allowed to equilibrate overnight and at least one additional day before labeling. When ready to label, the old media was replaced with 50 mL fresh media containing about 500 μCi ^35 S-Sodium Sulfate. The plugs were labeled in bulk for about 48 hours. The next morning, the "hot" media was removed and replaced with fresh "cold" media. The disks were again allowed to equilibrate overnight before being used for actual experiments.
The media in which the disks were stored was changed immediately prior to performing the assay. The disks were then returned to the incubator until the test media and the two control media had been prepared. The test media consisted of the desired concentration of a compound being tested for its ability to inhibit extracellular matrix degradation and concomitant recombinant human Interleukin rhIL-1α (5 ng/mL) in fresh DMEM solution. The control media were identical to the test media, except that the first control media lacked rhIL-1α and the second control media lacked the test compound. 250 μL of each of the test and control media were transferred to separate 96-well TC plates. Flamed forceps were used to transfer a disk from the incubator to each 96-well TC plates that had been filled with either the test media or one of the two control media.
The TC plates were then placed in the incubator and cultured for 3-4 days (initial incubation with rhIL-1α alpha takes at least 3 days to stimulate endogenous metalloproteinases). A 50 μL aliquot of media from each TC plate was saved and counted. The rest of the media was removed with a suction device.
The cartilage disks from each TC plate were also saved for counting. […]

The target in assay [3] is 92 kD gelatinase (Homo sapiens, UniProt P14780). Kind of assay: Assay of 92 KD gelatinase inhibition activity. It is filed as biochemical. Conditions: 92KD gelatinase 25 pM, H-150 buffer pH 7.4; read-out: Ki(app). On the procedure:
H-150 buffer, pH 7.4, was prepared by CaCl2 H2 O (1.47 grams), NaCl (8.77 grams) and N-[2-hydroxyethyl]piperazine-N'-[2-ethanesulfonic acid](23.83 grams) to distilled and deionized water and then bring the final volume of the solution to 1 liter. A reaction mixture having a final volume of 500 μL was prepared with H-150 buffer, 200 μgrams of Pro-92KD gelatinase (Strongin et al., J. Biol. Chem., 268:14033 (1993); Goldberg, et al., J. Biol. Chem., 267:4583 (1992); Okada et al., J. Biol. Chem. 267:21712 (1992)), p-aminophenyl mercuric acetate (Sigma Chemical Co., St. Louis, Mo.) (1 mM) and Brij (dodexylpoly(oxyethyleneglycolether))(0,008% w/v). The reaction mixture wsa then incubated for 24 hours at 37° C.
The reaction mixture was applied to a NAP-5 column (G-25 SEPHADEX™, Pharmacia). Fractions containing 72KD gelatinase were identified using 12% polyacrylamide gel electrophoresis and concentrated to about 100-200 μliters by centrifigation (5000 g, 1 hour).
A solution containing H-150 buffer (2.0 mL), 92KD gelatinase (25 pM) and ethylphenolpoly(ethylene-glycolether)n (Boerhringer Mannheim) (4.0 μM) was prepared in a stirred cuvette. Coumarin peptide substrate (4 μL of a 5 mM solution in dimethyl sulfoxide) was added to the reaction mixture. The rate of hydrolysis was determined for about 100-200 seconds by measuring the fluorescence of the reaction at ex328 nanometers and […] using a Hitachi F-2000 Fluorescence Spectrophotometer.
(§1) 2 μL of a 10 mM inhibitor stock solution (in dimethyl sulfoxide) is added and the reduction in the rate of hydrolysis is determined. Additional 2 μL aliquots of the stock inhibitor solution is added until a 30% to 70% inhibition is observed. Ki is calculated on the assumption of simple competitive inhibition and that the substrate concentration is much less than Km.

The target of assay [4] is human neutrophil collagenase (Homo sapiens, UniProt P22894). Description: Assay of human neutrophil collagenase inhibition activity. The assay is classed as biochemical. The conditions noted are these: human neutrophil collagenase 2 nM, H-150 buffer pH 7.4; read-out: Ki(app). As to the method: H-150 buffer, pH 7.4, was prepared by adding CaCl2 H2 O (1.47 grams), NaCl (8.77 grams) and N-[2-hydroxyethyl]piperazine-N'-[2-ethanesulfonic acid] (23.83 grams) to distilled and deionized water and then bringing the final volume of the solution to 1 liter.
human neutrophil collagenase, sequence (P22894 101-467): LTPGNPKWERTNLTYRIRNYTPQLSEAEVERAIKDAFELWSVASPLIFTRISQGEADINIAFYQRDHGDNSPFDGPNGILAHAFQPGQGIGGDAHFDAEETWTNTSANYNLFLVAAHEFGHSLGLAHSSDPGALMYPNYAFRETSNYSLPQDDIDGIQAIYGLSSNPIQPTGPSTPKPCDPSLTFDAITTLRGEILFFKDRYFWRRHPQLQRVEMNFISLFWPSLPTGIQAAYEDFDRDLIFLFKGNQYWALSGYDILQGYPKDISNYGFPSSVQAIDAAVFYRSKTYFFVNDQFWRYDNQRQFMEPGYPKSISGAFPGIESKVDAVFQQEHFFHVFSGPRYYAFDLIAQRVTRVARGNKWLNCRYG
A reaction mixture with a final volume of 2.0 mL was prepared from H-150 buffer, human neutrophil collagenase (Schnierer, et al., Blochem. Biophys. Res. Comm., 191:319 (1993); Knight et al., Federation of Europena Biochemical Societies 296:263 (1992)) (2 nM). Coumarin peptide substrate (4 μL of a 5 mM solution in dimethyl sulfoxide) was added to the reaction mixture. The rate of hydrolysis was determined for about 100-200 seconds by measuring the fluorescence of the reaction at ex328 nanometers and […] using a Hitachi F-2000 Fluorescence Spectrophotometer.
as §1

[5] abbreviates: Bos taurus, 25 μM compound, read-out: % inhibition (concentration [μM]) of cartilage degradation.

Each structure is given as a SMILES string.

stromelysin, sequence (P08254 100-477): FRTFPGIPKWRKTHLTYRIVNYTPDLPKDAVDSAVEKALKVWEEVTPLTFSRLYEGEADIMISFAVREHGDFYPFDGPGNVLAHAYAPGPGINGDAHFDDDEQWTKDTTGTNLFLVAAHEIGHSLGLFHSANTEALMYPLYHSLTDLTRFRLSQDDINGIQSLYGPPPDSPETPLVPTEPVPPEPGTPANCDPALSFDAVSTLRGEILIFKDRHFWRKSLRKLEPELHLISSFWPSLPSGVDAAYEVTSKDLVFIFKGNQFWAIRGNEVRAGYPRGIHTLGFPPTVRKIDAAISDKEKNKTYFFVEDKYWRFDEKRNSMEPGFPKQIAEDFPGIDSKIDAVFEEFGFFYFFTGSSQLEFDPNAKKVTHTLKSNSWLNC
92 kD gelatinase, sequence (P14780 107-707): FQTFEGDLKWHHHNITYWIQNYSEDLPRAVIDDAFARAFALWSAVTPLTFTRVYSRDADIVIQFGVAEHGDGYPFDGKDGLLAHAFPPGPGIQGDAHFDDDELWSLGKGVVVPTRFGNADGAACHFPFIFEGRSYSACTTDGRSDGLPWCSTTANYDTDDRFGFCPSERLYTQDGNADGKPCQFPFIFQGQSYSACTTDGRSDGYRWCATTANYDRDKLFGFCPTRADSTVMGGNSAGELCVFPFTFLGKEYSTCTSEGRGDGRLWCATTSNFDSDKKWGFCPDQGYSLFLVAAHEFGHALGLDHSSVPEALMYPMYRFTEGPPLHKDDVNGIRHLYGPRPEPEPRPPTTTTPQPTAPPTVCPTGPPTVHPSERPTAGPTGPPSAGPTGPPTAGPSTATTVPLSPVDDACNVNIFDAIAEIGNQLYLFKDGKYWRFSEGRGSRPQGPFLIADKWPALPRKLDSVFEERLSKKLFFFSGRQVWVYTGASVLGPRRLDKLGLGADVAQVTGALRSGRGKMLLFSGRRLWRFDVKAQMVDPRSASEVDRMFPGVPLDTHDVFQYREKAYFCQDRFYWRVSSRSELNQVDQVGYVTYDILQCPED

For `O=C(N[C@@H](Cc1c[nH]c2ccccc12)C(=O)N[C@@H](Cc1ccccc1)C(=O)Nc1n[nH]c(=S)s1)OCc1ccccc1` [5-(N-benzyloxycarbonyl-tryptoyl-phenylalanylamino)-1,3,4-thiadiazole-2-thione], the Ki in assay [1] worked out at 225 nM. Besides, the “% inhibition (concentration [μM]) of cartilage degradation” value (from here on “% inhibition (concentration [μM])”) in assay [2] (50 μM compound) is recorded as 35%.
Take `CC(C)[C@H](NC(=O)[C@H](CCC(=O)OCc1ccccc1)NC(=O)OCc1ccccc1)C(=O)Nc1n[nH]c(=S)s1` [5-(N-benzyloxycarbonyl-(O-benzyl)glutamoyl-valylamino)-1,3,4-thiadiazole-2-thione]: in assay [1], the Ki was 146 nM. Besides, in assay [2] (25 μM compound), the “% inhibition (concentration [μM])” value is 33%.
Consider `CC(C)[C@H](NC(=O)[C@H](CCC(=O)NC(c1ccccc1)(c1ccccc1)c1ccccc1)NC(=O)OCc1ccccc1)C(=O)Nc1n[nH]c(=S)s1` [5-(N-benzyloxycarbonyl-(7--N-trityl)glutamyl-valyamino-1,3,4-thiadiazole-2-thione], for which the Ki in assay [1] worked out at 91 nM. Also, in assay [2] (25 μM compound), the “% inhibition (concentration [μM])” value is 56%.
Take `O=C(N[C@@H](CCc1ccccc1)C(=O)Nc1n[nH]c(=S)s1)OCC1c2ccccc2-c2ccccc21` [5-(N-(9-flourenylmethoxycarbonyl)homophenylalanylamino)-1,3,4-thiadiazole-2-thione]: the Ki in assay [1] amounted to 436 nM; in assay [3] it was 0.35 nM. Further, the “% inhibition (concentration [μM])” value in assay [2] (50 μM compound) worked out at 65%.
Take `O=C(N[C@H](CCc1ccccc1)C(=O)Nc1n[nH]c(=S)s1)OCc1ccccc1` [5-(N-benzyloxycarbonyl-D-homophenylalanylamino)-1,3,4-thiadiazole-2-thione]: in assay [2] (setting [5]), the inhibition at 25 µM worked out at 22%.
Take `CC(C)[C@H](NC(=O)Cc1ccc(-c2ccccc2)cc1)C(=O)Nc1n[nH]c(=S)s1` [5-(N-((4-phenyl)phenylacetyl)valylamino)-1,3,4-thiadiazole-2-thione]: the Ki in assay [1] was 100 nM. In assay [2] (setting [5]), the inhibition at 25 µM came to 47%.
Turning to `CC(C)[C@H](NC(=O)[C@H](Cc1ccc(OCc2ccccc2)cc1)NC(=O)OCc1ccccc1)C(=O)Nc1n[nH]c(=S)s1` [5-(N-benzyloxycarbnyl-(O-benzyl)tyrosyl-valylamino)-1,3,4-thiadiazole-2-thione], the Ki in assay [1] was determined as 80 nM; in assay [4], 2.15 nM. Besides, in assay [2] (50 μM compound), the “% inhibition (concentration [μM])” value is 59%.
On to `CC(C)[C@H](NC(=O)OCC1c2ccccc2-c2ccccc21)C(=O)Nc1n[nH]c(=S)s1` [5-(N-(9-fluorenylmethoxycarbonyl)valylamino)-1,3,4-thiadiazole-2-thione], for which the Ki in assay [1] turned out to be 128 nM. The inhibition at 20 µM in assay [2] (Bos taurus, 20 μM compound, read-out: % inhibition (concentration [μM]) of cartilage degradation) worked out at 42%.
For `CC(C)[C@H](NC(=O)[C@H](Cc1ccccc1)NC(=O)Cc1ccc(-c2ccccc2)cc1)C(=O)Nc1n[nH]c(=S)s1` [5-(N-(4-phenyl)phenylacetyl-phenylalanyl-valylamino)-1,3,4-thiadiazole-2-thione], in assay [1], the Ki was 135 nM. Besides, the “% inhibition (concentration [μM])” value in assay [2] (25 μM compound) was found to be 37%.

The record behind these values is patent US5677282A (Proscript, Inc., priority 1995, dated 1997).
